Values of other authors in article PMC9217999 (Targeted Oncology, 2022).

How the values were obtained:
Conditions in all cases: cited from earlier work
recurrent/refractory LGG = test system: recurrent/refractory LGG
NF1 and inoperable PN = test system: NF1 and inoperable PN
NF1-associated PN = test system: NF1-associated PN

Row | Structure (SMILES) | PR (bidimensional measurements on T2/FLAIR) (recurrent/refractory LGG; 5/25, four with BRAF aberrations) [%] | 2-year PFS (recurrent/refractory LGG) [%] | Confirmed PR rate (NF1 and inoperable PN) [%] | PR rate (NF1 and inoperable PN) [%] | Stable disease (NF1 and inoperable PN) [%] | Responses ongoing (NF1-associated PN; 10/12 responses) [%] | Patients with PR (NF1-associated PN; 12/26 patients, preliminary data) [%]
1 | Cn1cnc2c(F)c(Nc3ccc(Br)cc3Cl)c(C(=O)NOCCO)cc21 [selumetinib] | 20 | 69 | 68 | 74 | 12 |  | 
2 | CC(=O)Nc1cccc(-n2c(=O)n(C3CC3)c(=O)c3c(Nc4ccc(I)cc4F)n(C)c(=O)c(C)c32)c1 [trametinib] |  |  |  |  |  | 83 | 46
